In patent publication US8507656B2, “Stabilized angiopoietin-2 antibodies and uses thereof” (MedImmune Limited, priority 2008, dated 2013):
“Also recorded” adds a separate entry of the source. Where two headings read alike, the source gives them in different places. Marks after values point to notes of the source that are not given here.

How the values were obtained:
HT-29 xenograft tumors = test: HT-29 xenograft model of colorectal cancer; format: in vivo; details: 3.19.3 10 mg/kg 2×wk i.p., Irinotecan 35 mg/kg/week i.v., combination of both
Method: The anti-tumor activity of 3.19.3 was evaluated in combination with Irinotecan in the HT-29 xenograft model of colorectal cancer. HT-29 cells were cultured in flasks as routine until the cells reached sub-confluence. Cell suspensions containing approximately 3×10E6 cells were injected subcutaneously into the flank of female Swiss nude mice. When the tumor volume reached 200 mm^3, the mice were randomized in treatment groups of 8-10 mice and the treatments were initiated. 3.19.3 (10 mg/kg) in saline was injected intraperitoneally, twice per week for 2 weeks. Irinotecan (35 mg/kg) was administered by intravenous administration following a weekly schedule. The dimensions of each tumor and body weights were measured at least twice per week. The volume of the tumor was calculated as: Volume=Length×(Width)×0.5 (cm^3). […] The % tumor growth inhibition achieved is as follows: […]

LoVo xenograft tumors = format: in vivo; details: 3.19.3 10 mg/kg 2×wk i.p., 5FU 100 mg/kg/week i.p., combination of both
Method: (§1) The anti-tumor activity of 3.19.3 was evaluated in combination with 5-Fluoruracil (5FU) in the LoVo xenograft model of colorectal cancer. LoVo cells were cultured in flasks as routine until the cells reached sub-confluence. Cell suspensions containing approximately 3×10E6 cells were injected subcutaneously into the flank of female Swiss nude mice. When the tumor volume reached 200 mm^3, the mice were randomized in treatment groups of 8-10 mice and the treatments were initiated. 3.19.3 (10 mg/kg) in saline was injected intraperitoneally, twice per week for 2 weeks and 5-Flurouracil (100 mg/kg) was administered by intraperitoneal administration following a weekly schedule. The dimensions of each tumor and body weights were measured at least twice per week. The volume of the tumor was calculated as: Volume=Length×(Width)×0.5 (cm^3).

MCF7 xenograft tumors = test: MCF7 breast cancer xenograft model; format: in vivo; details: 3.19.3 10 mg/kg 2×wk i.p., AZD6495 30 mg/kg bid p.o. 18 d, combination of both
Method: The anti-tumor activity of the anti-Angiopoietin-2 monoclonal antibody 3.19.3 in combination with the small molecule CSF1R tyrosine kinase inhibitor AZD6495 (4-[(2,4-difluorophenyl)amino]-7-ethoxy-6-(4-methylpiperazin-1-yl)quinoline-3-carboxamide) was evaluated in a xenograft model of human breast carcinoma using the MCF7 cell line (FIG. 4a).
Materials and Methods: Breast carcinoma MCF7 cells were cultured in flasks as routine until the cells reach sub-confluence. Immunodeficient 7-10 week old male NCr-nude mice were subcutaneously implanted with 8×10^6 MCF7 cells suspended 1:1 in Matrigel in the right flank. […]
The mice were then randomized into cohorts containing 15 mice once the tumors reached approximately 100 mm^3. […] The body weights of each animal, and the dimensions of each tumor were measured twice per week. The volume of the tumor was calculated as: Volume=Length×(Width)^2×0.5 cm^3, or by bilateral Vernier caliper measurement and, taking length to be the longest diameter across the tumor and width the corresponding perpendicular, calculated using the formula (π/6)×(length×width)×√(length×width). Growth inhibition from the start of treatment was assessed by comparison of the differences in tumor volume between control and treated groups.

H460 xenograft tumors [1] = format: in vivo; details: 3.19.3 10 mg/kg 2×wk i.p., Oxaliplatin 5 mg/kg/week i.p., combination of both
Method: as §1, with “Oxaliplatin” for “5-Fluoruracil (5FU)”, “H460” for “LoVo”, “lung” for “colorectal”, “weeks. Oxaliplatin (5” for “weeks and 5-Flurouracil (100”

[2] = tested on: collagen-induced arthritis; test: Collagen-induced arthritis (CIA), dose response (Example 11); format: in vivo, male DBA/1 mice
[3] = tested on: collagen induced arthritis
H460 xenograft tumors [4] = format: in vivo; details: 3.19.3 10 mg/kg 2×wk i.p., AZD4877 10 mg/kg q4dx2 i.p., combination of both
Method: The anti-tumor activity of 3.19.3 was evaluated in combination with AZD4877 in the
H460 xenograft model of lung cancer. H460 cells were cultured in flasks as routine until the cells reached sub-confluence. Cell suspensions containing approximately 3×10E6 cells were injected subcutaneously into the right flank of male NCr nu/nu mice. When the tumor volume reached 200 mm^3, the mice were randomized in treatment groups of 8-10 mice and the treatments were initiated. 3.19.3 (10 mg/kg) in saline was injected intraperitoneally, twice per week for 2 weeks. AZD4877 (10 mg/kg) was administered by intraperitoneal administration following a q4d schedule. The dimensions of each tumor and body weights were measured at least twice per week. The volume of the tumor was calculated as: Volume=Length×(Width)×0.5 (cm^3).

[5] = 0.1 mg/kg ip every 3 days for 14 days from disease onset
[6] = 1 mg/kg ip every 3 days for 14 days from disease onset
[7] = 10 mg/kg ip every 3 days for 14 days from disease onset
[8] = means ± SEM, 3.19.3 10 mg/kg i.p every 3 days, hIgG i.p, Prednisolone 3 mg/kg p.o daily, 14 days from disease onset

Substance: 3.19.3: fully human anti-Ang-2 monoclonal antibody, wild type control; light chain SEQ ID No. 1, heavy chain SEQ ID No. 2 [Antibody 3.19.3]
- % tumor growth inhibition (HT-29 xenograft tumors): 44%
- % tumor growth inhibition (LoVo xenograft tumors): 59%
- % tumor growth inhibition (MCF7 xenograft tumors): 62%
- % tumor growth inhibition (H460 xenograft tumors [1]): 67%
- % inhibition (AUC of Clinical Score) [2, 5]: 16% +/− 13%
- AUC of Clinical Score [2, 5]: 99 +/− 15
- % inhibition (AUC of Clinical Score) [2, 6]: 53% +/− 7%*
- AUC of Clinical Score [2, 6]: 46 +/− 9
- % inhibition (AUC of Clinical Score) [2, 7]: 44% +/− 9%*
- AUC of Clinical Score [2, 7]: 67 +/− 11
- CD31+ microvessel density in synovium (in words) ([2]; 3.19.3 0.1 mg/kg): no effect
- histopathological evaluation: synovial hyperplasia, synovitis, pannus, synovial fibrosis, periostitis (in words) ([2]; 3.19.3 0.1, 1 and 10 mg/kg, isotype control vs PBS vehicle): dose-dependent anti-arthritic effect
- CD31+ microvessel density in synovium (in words) ([2]; 3.19.3 at 1 and 10 mg/kg, prednisolone 3 mg/kg): significant reduction in microvessel density; also recorded: significant reduction in the presence of microvessels
- clinical signs of disease progression (arthritic score) (in words) ([2]; doses of 1 and 10 mg/kg): significant reduction
- clinical signs of disease progression (arthritic score) and histological assessment of synovitis and joint destruction (in words) ([3]; 3.19.3 10 mg/kg, vs vehicle control): Significant reductions
- % Inhibition (of AUC of clinical disease progression) [3, 8]: 64.3% ± 8.6%
- Area Under Curve (AUC) of clinical disease progression [3, 8]: 36.0 ± 8.7
- tolerability by mean body weight (in words) ([3]; mouse, in vivo, 10 mg/kg): well tolerated
- % tumor growth inhibition (H460 xenograft tumors [4]): 64%
